Data from patent US11044911B2, “Phenoxyurea compound and pest control agent” (Nippon Soda Co., Ltd., priority 2018, dated 2021).

Legend:
eggplants = assay: Test Example 14: phytotoxicity test on eggplants; format: in vivo, eggplant; conditions: 300 ppm spray; for Eggplant; 6- to 7-leaf stage After 14 days Leaf Phytotoxicity index: index 0 (no phytotoxicity) to 10 (plant death)
Source text: (§1) A sufficient amount of chemical having a compound concentration of 300 ppm was sprayed onto eggplants at the 6- to 7-leaf stage using a glass nozzle, and they were left to stand in a greenhouse. The presence or absence of phytotoxicity was investigated after being left to stand for 14 days.
(§2) The symptoms of phytotoxicity were deformation and discoloration of leaves.

[1] = system: drug-resistant strain of Panonychus citri collected in Wakayama Prefecture; assay: Test Example 13: efficacy test against drug-resistant strain of Panonychus citri; format: in vivo; conditions: 10 days, corrected insecticidal rate
Description: (§3) 5 parts by weight of the compound of the present invention, 93.6 parts by weight of dimethylformamide and 1.4 parts by weight of polyoxyethylene alkylaryl ether were mixed and dissolved to prepare an emulsion (I) containing 5% of an active ingredient.
(§4) Insecticidal rate (%)=(number of dead insects/number of tested insects)×100
(§5) In addition, an efficacy test against a drug-resistant strain of Panonychus citri collected in Wakayama Prefecture was conducted in the following manner.
(§6) 8 adult females of a drug resistant strain of Panonychus citri were inoculated on mandarin orange leaves placed in a petri dish. Then, the emulsion (I) was diluted with water so that the concentration of the compound was 37.5 ppm or 9.4 ppm to obtain a chemical. This chemical was sprayed onto the mandarin orange leaves with a rotary spray tower. The mandarin orange leaves were placed in a thermostatic chamber at a temperature of 25° C. and a humidity of 65%. The life and death of the spider mite were investigated when 10 days had passed after the spraying, and the corrected insecticidal rate was calculated.

cucumber plants = assay: Test Example 14: phytotoxicity test on cucumber plants; format: in vivo; conditions: 300 ppm spray; for Cucumber; 1.5-leaf stage After 14 days Leaf Phytotoxicity index: index 0 (no phytotoxicity) to 10 (plant death)
Description: as §1, with “A test for phytotoxicity on cucumber plants was conducted as follows. A” for “A”, “cucumber plants” for “eggplants”, “1.5-leaf” for “6- to 7-leaf”
as §2

[2] = system: drug resistant strains of spider mites; assay: Test Example 13: summary over all drug resistant strains of spider mites; format: in vivo, Tetranychus urticae, Panonychus citri; conditions: 9.4 ppm, all strains tested
Description: (§7) Efficacy tests against seven drug-resistant strains of Tetranychus urticae collected from various parts of Japan (one strain from Shizuoka Prefecture, Aomori Prefecture and Fukuoka Prefecture, and two strains from Chiba Prefecture and Nagano Prefecture) were conducted in the following manner.
as §6, with “drug-resistant strains” for “a drug resistant strain”, “spider mites” for “Panonychus citri”, “kidney bean plant” for “mandarin orange”, “the” for “the corrected”
as §5
8 adult females of a drug resistant strain of Panonychus citri were inoculated on mandarin orange leaves placed in a petri dish. […] The life and death of the spider mite were investigated when 10 days had passed after the spraying, and the corrected insecticidal rate was calculated.

Tetranychus urticae = assay: Test Example 10: efficacy test against Tetranychus urticae (soil irrigation test); format: in vivo; conditions: 25 ml of 400 ppm, strawberry seedling, 19 days after inoculation
Description: as §3
The emulsion (I) was diluted with tap water to prepare a drug solution having a concentration of 400 ppm. A plastic potted strawberry seedling was subjected to a plant foot irrigation treatment with 25 ml of the drug solution, and placed in a thermostatic chamber at a temperature of 25° C. and a humidity of 60%. Three days after the irrigation treatment, 15 adult females of Tetranychus urticae were inoculated on each seedling. The number of surviving insects 19 days after inoculation was investigated, and the control value was obtained by the following formula. The test was repeated twice. Control value (%)=100−{(Nt)/(Nc)×100}
The letters in the formula represent the following.
Nc: Number of surviving insects in the untreated group
Nt: Number of surviving insects in the treated group

[3] = system: drug-resistant strains of Tetranychus urticae; assay: Test Example 13: efficacy test against drug-resistant strains of Tetranychus urticae; format: in vivo; conditions: 10 days
Source text: as §3, §4, §7
as §6, with “drug-resistant strains” for “a drug resistant strain”, “spider mites” for “Panonychus citri”, “kidney bean plant” for “mandarin orange”, “the” for “the corrected”

Structure (SMILES): CCN(Oc1cc(Br)cc(C(F)(F)F)c1)C(=O)NC(C)(C)C(=O)NCC(F)(F)F [Compound 1-1, 2-{3-[3-Bromo-5-(trifluoromethyl)phenoxy]-3-ethylureido}-2-methyl-N-(2,2,2-trifluoroethyl)propanamide]
- phytotoxicity on eggplants (eggplants; 14 days): no phytotoxicity
- Eggplant; 6- to 7-leaf stage After 14 days Leaf Phytotoxicity index (eggplants; Repetition A): 0
- Eggplant; 6- to 7-leaf stage After 14 days Leaf Phytotoxicity index (eggplants; Repetition B): 0
- insecticidal rate, Low-susceptible Panonychus citri from Wakayama Prefecture ([1]; 9.4 ppm): 99%
- insecticidal rate, Low-susceptible Panonychus citri from Wakayama Prefecture ([1]; 37.5 ppm): 100%
- phytotoxicity on cucumber plants (cucumber plants; 14 days): no phytotoxicity
- Cucumber; 1.5-leaf stage After 14 days Leaf Phytotoxicity index (cucumber plants; Repetition A): 0
- Cucumber; 1.5-leaf stage After 14 days Leaf Phytotoxicity index (cucumber plants; Repetition B): 0
- efficacy against all drug resistant strains of spider mites [2]: ≥ 90
- control value against Tetranychus urticae (Tetranychus urticae): ≥ 90%
- insecticidal rate, Low-susceptible Tetranychus urticae 1 from Nagano Prefecture ([3]; 9.4 ppm): 100%
- insecticidal rate, Low-susceptible Tetranychus urticae 2 from Chiba Prefecture ([3]; 9.4 ppm): 97%
- insecticidal rate, Low-susceptible Tetranychus urticae 2 from Nagano Prefecture ([3]; 9.4 ppm): 99%
- insecticidal rate, Low-susceptible Tetranychus urticae from Aomori Prefecture ([3]; 9.4 ppm): 93%
- insecticidal rate, Low-susceptible Tetranychus urticae from Fukuoka Prefecture ([3]; 9.4 ppm): 96%
- insecticidal rate, Low-susceptible Tetranychus urticae from Shizuoka Prefecture ([3]; 9.4 ppm): 96%
- insecticidal rate, Low-susceptible Tetranyclus urticae 1 from Chiba Prefecture ([3]; 9.4 ppm): 100%
- insecticidal rate, Low-susceptible Tetranychus urticae 1 from Nagano Prefecture ([3]; 37.5 ppm): 100%
- insecticidal rate, Low-susceptible Tetranychus urticae 2 from Chiba Prefecture ([3]; 37.5 ppm): 100%
- insecticidal rate, Low-susceptible Tetranychus urticae 2 from Nagano Prefecture ([3]; 37.5 ppm): 100%
- insecticidal rate, Low-susceptible Tetranychus urticae from Aomori Prefecture ([3]; 37.5 ppm): 100%
- insecticidal rate, Low-susceptible Tetranychus urticae from Fukuoka Prefecture ([3]; 37.5 ppm): 99%
- insecticidal rate, Low-susceptible Tetranychus urticae from Shizuoka Prefecture ([3]; 37.5 ppm): 100%
- insecticidal rate, Low-susceptible Tetranyclus urticae 1 from Chiba Prefecture ([3]; 37.5 ppm): 100%

Structure (SMILES): CCN(Oc1cc(Cl)cc(Br)c1)C(=O)NC(C)(C)C(=O)NCC(F)(F)F [Compound (D)]
- Eggplant; 6- to 7-leaf stage After 14 days Leaf Phytotoxicity index (eggplants; Repetition A): 3
- Eggplant; 6- to 7-leaf stage After 14 days Leaf Phytotoxicity index (eggplants; Repetition B): 3
- Cucumber; 1.5-leaf stage After 14 days Leaf Phytotoxicity index (cucumber plants; Repetition A): 5
- Cucumber; 1.5-leaf stage After 14 days Leaf Phytotoxicity index (cucumber plants; Repetition B): 7
- insecticidal rate, Low-susceptible Tetranychus urticae 1 from Nagano Prefecture ([3]; 9.4 ppm): 73%
- insecticidal rate, Low-susceptible Tetranychus urticae 2 from Chiba Prefecture ([3]; 9.4 ppm): 72%
- insecticidal rate, Low-susceptible Tetranychus urticae 2 from Nagano Prefecture ([3]; 9.4 ppm): 45%
- insecticidal rate, Low-susceptible Tetranyclus urticae 1 from Chiba Prefecture ([3]; 9.4 ppm): 32%
- insecticidal rate, Low-susceptible Tetranychus urticae 1 from Nagano Prefecture ([3]; 37.5 ppm): 99%
- insecticidal rate, Low-susceptible Tetranychus urticae 2 from Chiba Prefecture ([3]; 37.5 ppm): 87%
- insecticidal rate, Low-susceptible Tetranychus urticae 2 from Nagano Prefecture ([3]; 37.5 ppm): 96%
- insecticidal rate, Low-susceptible Tetranyclus urticae 1 from Chiba Prefecture ([3]; 37.5 ppm): 77%

Structure (SMILES): CCN(Oc1cc(Br)nc(Br)c1)C(=O)NC(C)(C)C(=O)NCC(F)(F)F [Compound (G)]
- Eggplant; 6- to 7-leaf stage After 14 days Leaf Phytotoxicity index (eggplants; Repetition A): 2
- Eggplant; 6- to 7-leaf stage After 14 days Leaf Phytotoxicity index (eggplants; Repetition B): 2
- insecticidal rate, Low-susceptible Panonychus citri from Wakayama Prefecture ([1]; 9.4 ppm): 60%
- insecticidal rate, Low-susceptible Panonychus citri from Wakayama Prefecture ([1]; 37.5 ppm): 95%
- Cucumber; 1.5-leaf stage After 14 days Leaf Phytotoxicity index (cucumber plants; Repetition A): 2
- Cucumber; 1.5-leaf stage After 14 days Leaf Phytotoxicity index (cucumber plants; Repetition B): 2
- insecticidal rate, Low-susceptible Tetranychus urticae 1 from Nagano Prefecture ([3]; 9.4 ppm): 78%
- insecticidal rate, Low-susceptible Tetranychus urticae 2 from Chiba Prefecture ([3]; 9.4 ppm): 58%
- insecticidal rate, Low-susceptible Tetranychus urticae 2 from Nagano Prefecture ([3]; 9.4 ppm): 70%
- insecticidal rate, Low-susceptible Tetranychus urticae from Aomori Prefecture ([3]; 9.4 ppm): 66%
- insecticidal rate, Low-susceptible Tetranyclus urticae 1 from Chiba Prefecture ([3]; 9.4 ppm): 53%
- insecticidal rate, Low-susceptible Tetranychus urticae 1 from Nagano Prefecture ([3]; 37.5 ppm): 96%
- insecticidal rate, Low-susceptible Tetranychus urticae 2 from Chiba Prefecture ([3]; 37.5 ppm): 91%
- insecticidal rate, Low-susceptible Tetranychus urticae 2 from Nagano Prefecture ([3]; 37.5 ppm): 88%
- insecticidal rate, Low-susceptible Tetranychus urticae from Aomori Prefecture ([3]; 37.5 ppm): 97%
- insecticidal rate, Low-susceptible Tetranyclus urticae 1 from Chiba Prefecture ([3]; 37.5 ppm): 98%

Structure (SMILES): CCN(Oc1ccnc(C(F)(F)F)c1)C(=O)NC(C)(C)C(=O)NCC(F)(F)F [Compound (H)]
- Eggplant; 6- to 7-leaf stage After 14 days Leaf Phytotoxicity index (eggplants; Repetition A): 2
- Eggplant; 6- to 7-leaf stage After 14 days Leaf Phytotoxicity index (eggplants; Repetition B): 2
- insecticidal rate, Low-susceptible Panonychus citri from Wakayama Prefecture ([1]; 9.4 ppm): 78%
- insecticidal rate, Low-susceptible Panonychus citri from Wakayama Prefecture ([1]; 37.5 ppm): 96%
- insecticidal rate, Low-susceptible Tetranychus urticae from Fukuoka Prefecture ([3]; 9.4 ppm): 45%
- insecticidal rate, Low-susceptible Tetranychus urticae from Fukuoka Prefecture ([3]; 37.5 ppm): 96%
